Measurements reported in patent publication US20080312197A1, “PHARMACEUTICAL PRODUCTS CONTAINING HORMONES AND A 25-HYDROXY VITAMIN D COMPOUND” (priority 2007, published 2008).

Columns and labels:
OVCAR 5 cells = assay: MTS cell viability assay, OVCAR 5 cells; format: cell-based, human
Protocol: (§1) Progesterone and Vitamin D (1,25(OH)2 D3) were tested to determine their effect on cell lines derived from the human ovarian surface epithelium. […] This is shown in FIGS. 1-3 in both ovarian cancer cell lines (OVCAR 5 and OVCAR 3) as well as an immortalized cell cultures derived from the normal human ovarian epithelium (HIO-118V). There is a marked impact on cell viability when the two agents are combined and administered at a dosage that has a marginal impact for each agent given alone.

HIO-118V cells [1] = assay: MTS cell viability assay, immortalized human ovarian epithelial cells (HIO-118V); format: cell-based
Protocol: as §1

[2] = cited from earlier work
OVCAR 3 cells = assay: MTS cell viability assay, OVCAR 3 cells; format: cell-based, human
Protocol: as §1

[3] = 0.5 micrograms per day or 5 micrograms per week; cited from earlier work
[4] = tested on: Vitamin D 24 hydroxylase (24-OH); assay: Western blot of 24 hydroxylase expression in OVCAR 3 cells; format: cell-based, human; conditions: 18 hours, 100 nM Vitamin D, 25 μM progesterone, 25 μM Genistein
Excerpt: Protein was then extracted from the cells and 24-OH expression was the measured via Western Blot, and the degree of expression (band density) measured via a densitometer.

24 hydroxylase (24-OH) = target: T1, 24 hydroxylase (24-OH) (Homo sapiens, UniProt Q07973); conditions: shown by others; cited from earlier work
T1 sequence (Q07973 36-514): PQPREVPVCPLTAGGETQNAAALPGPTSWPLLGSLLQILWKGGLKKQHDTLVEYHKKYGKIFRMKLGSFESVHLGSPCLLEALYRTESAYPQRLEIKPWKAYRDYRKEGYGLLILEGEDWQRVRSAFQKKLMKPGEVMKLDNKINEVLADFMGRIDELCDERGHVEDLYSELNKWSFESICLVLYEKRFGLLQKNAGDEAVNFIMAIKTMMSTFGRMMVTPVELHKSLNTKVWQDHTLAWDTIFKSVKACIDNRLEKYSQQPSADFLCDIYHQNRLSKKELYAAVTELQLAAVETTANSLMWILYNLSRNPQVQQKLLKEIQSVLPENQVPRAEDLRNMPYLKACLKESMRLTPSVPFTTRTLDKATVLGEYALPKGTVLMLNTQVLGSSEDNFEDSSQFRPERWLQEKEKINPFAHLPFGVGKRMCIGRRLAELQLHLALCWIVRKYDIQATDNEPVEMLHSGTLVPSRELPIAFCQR

HIO-118V cells [5] = assay: Apoptosis by TUNEL method, HIO-118V cells; format: cell-based, human; conditions: 45 uM progesterone, 1 uM Vitamin D
Protocol: In experiments to further understand the effect of progestin and vitamin D on cell viability, experiments were conducted to determine how progestin, vitamin D, and the combination act to induce apoptosis. In the experiment cells were incubated for 28 and 48 hours in the hormonal treatments as indicated and assessed for TUNEL reactivity. In these experiments, Apoptosis (TUNEL) data shown in conditions in which inhibitory effects via MTS were shown. In the example shown in FIG. 4, OVCAR 3 cells undergo a 7-fold increase in apoptosis at 48 hrs when treated with a combination of progesterone and vitamin D. HIO-118V cells show a 1.7-fold increase in apoptosis with 45 uM progesterone alone and a 1.9-fold increase with the combination of 1 uM Vitamin D and 45 uM progesterone.

Molecule | cell viability (MTS assay) (OVCAR 5 cells) | cell viability (MTS assay) (HIO-118V cells [1]) | half life after oral administration [2] | cell viability (MTS assay) (OVCAR 3 cells) | 24-OH expression (Western blot, band density) [4] | further results
C=C1/C(=C\C=C2/CCC[C@]3(C)[C@@H]([C@H](C)CCCC(C)(C)O)CC[C@@H]23)C[C@@H](O)C[C@@H]1O [Vitamin D (1,25(OH)2 D3), 1,25-dihydroxyvitamin D3] | inhibit cell viability in a dose response fashion | inhibit cell viability in a dose response fashion | 5 to 8 h | inhibit cell viability in a dose response fashion |  | serum half-life ([2]; serum): 6 to 8 h; individuals developing hypercalcemia [3]: 1-3%
1,25-dihydroxyvitamin D3 [Vitamin D (1,25(OH)2 D3)] |  |  |  |  | markedly induced | 
O=c1c(-c2ccc(O)cc2)coc2cc(O)cc(O)c12 [Genistein, genistein] |  |  |  |  |  | inhibition of 24-OH (24 hydroxylase (24-OH)): inhibit 24-OH
C=C1CC[C@H](O)C/C1=C/C=C1\CCC[C@]2(C)[C@@H]([C@H](C)CCCC(C)(C)O)CC[C@@H]12 [25(OH) D3, 25-hydroxyvitamin D3] |  |  | approximately 2 weeks |  |  | 
CC(=O)[C@H]1CC[C@H]2[C@@H]3CCC4=CC(=O)CC[C@]4(C)[C@H]3CC[C@]12C [Progesterone, progesterone] | inhibit cell viability in a dose response fashion | inhibit cell viability in a dose response fashion |  | inhibit cell viability in a dose response fashion | causes both degradation and decreases production of 24 hydroxylase | increase in apoptosis (TUNEL) (HIO-118V cells [5]): 1.7 fold
